Common to all, as to format: cell-based
Assay [1] relates to Aspergillus fumigatus ATCC204305. The experiment in a line: microbe, parasite or virus in culture. The protocol: (§1) Compounds 1–8 were tested for antifungal activities against Aspergillus fumigatus ATCC204305 and Aspergillus niger ATCC16404 using broth microdilution antifungal susceptibility testing, according to previously published protocol. In the experiments, the RPMI-1640 medium containing 10.4 g/L of RPMI-1640 medium (R8755; Sigma, St. Louis, MO, USA), 6.7 g/L of Yeast Nitrogen Base (YNB; Becton, Dickinson and Company, Franklin Lakes, NJ, USA), 1.8% (w/v) glucose, and 40 mM HEPES (pH = 7.1) was used as culture medium. The inoculum per well for a 96-well microplate was 2 × 10^4 fresh conidia/mL (150 µL/well), which were incubated for 24 h at 37 ℃. The minimal inhibitory concentration (MIC) in the assay were performed using resazurin at 0.002% (w/v) of final concentration.

Assay [2] concerns Aspergillus niger ATCC16404. The experiment in a line: microbe, parasite or virus in culture. The protocol:
as §1

Assay [3] concerns human embryonic lung fibroblast cell MRC-5. The experiment in a line: Cytotoxicity, MTT assay. To be noted: MRC-5, MTT, positive control.
Assay [4] deals with non-small cell lung cancer cell line A549. The experiment in a line: Cytotoxicity, MTT assay. To be noted: positive control. (In general: Formazan colour is commonly taken as a measure of viable cells.)
In assay [5] the test system is small cell lung cancer cell line H446. Description: Cytotoxicity, MTT assay. The conditions noted are these: printed H466, MTT, positive control.
The subject of assay [6] is small cell lung cancer cell line H1688. Description: Cytotoxicity, MTT assay. The conditions noted are these: positive control.

Like-named read-outs stand apart in the source and are kept apart here.

In general, IC50 refers to the point on the concentration scale where inhibition reaches its midpoint.

Turning to `C[C@@H]1[C@H](O)[C@@H](C)/C=C/C=C/C=C/C=C/C=C/C=C/C=C/[C@H](O[C@@H]2O[C@H](C)[C@@H](O)[C@H](N)[C@@H]2O)C[C@@H]2O[C@](O)(C[C@@H](O)C[C@@H](O)[C@H](O)CC[C@@H](O)C[C@@H](O)CC(=O)O[C@H]1C)C[C@H](O)[C@H]2C(=O)O` [Amphotericin B], the MIC in assay [1] (ATCC204305, Table S1, broth microdilution, RPMI-1640 + YNB + 1.8% glucose + 40 mM HEPES pH 7.1, 2 × 10^4 conidia/mL, 24 h, 37 °C, resazurin 0.002%, read-out: MIC) was determined as 1 µM; in assay [1] (ATCC204305, one range given for A. fumigatus and A. niger together, read-out: MIC values), 1 µM; in assay [1] (ATCC204305, text of method and conclusions, unit printed as μg/mL, read-out: MICs) it was 1 µg/mL; in assay [2] (ATCC16404, Table S1, broth microdilution, RPMI-1640 + YNB + 1.8% glucose + 40 mM HEPES pH 7.1, 2 × 10^4 conidia/mL, 24 h, 37 °C, resazurin 0.002%, read-out: MIC), 1 µM; in assay [2] (ATCC16404, one range given for A. fumigatus and A. niger together, read-out: MIC values), 1 µM; in assay [2] (ATCC16404, text of method and conclusions, unit printed as μg/mL, read-out: MICs), 1 µg/mL.

As to `N.N.[Cl][Pt][Cl]` [Cisplatin], the IC50 is 23.8 µM in assay [3], 3.8 µM in assay [4], 1.9 µM in assay [5] and 3 µM in assay [6].
